Assay results published in ChEMBL document CHEMBL1146150, “Synthesis and antibacterial activity of novel neamine derivatives” (2006).
Values after ≈ are worked out from the molar mass of the structure shown.

Test system: Staphylococcus aureus
Assay: Antibacterial activity against Staphylococcus aureus RN4220 by twofold agar dilution method
Format: functional

Compound	MIC [µg/mL]
NCC[C@H](O)C(=O)N[C@@H]1C[C@H](N)[C@@H](O[C@H]2O[C@H](CN)CC[C@H]2N)[C@H](O)[C@H]1O	4 (≈ 10.2 µM)
NCC[C@H](O)C(=O)N[C@@H]1C[C@H](N)[C@@H](O[C@H]2O[C@H](CN)CC[C@H]2N)[C@H](O)[C@H]1O[C@H]1O[C@H](CO)[C@@H](O)[C@H](N)[C@H]1O [ARBEKACIN]	0.5 (≈ 0.905 µM)
CN[C@@H]1[C@@H](O)[C@@H](O[C@@H]2[C@@H](O)[C@H](O[C@H]3O[C@H]([C@@H](C)NC)CC[C@H]3N)[C@@H](N)C[C@H]2N)OC[C@]1(C)O [GENTAMICIN C1]	0.25 (≈ 0.523 µM)
CN[C@@H]1[C@@H](O)[C@@H](O[C@@H]2[C@@H](O)[C@H](O[C@H]3O[C@H](C(C)N)CC[C@H]3N)[C@@H](N)C[C@H]2N)OC[C@]1(C)O (some centres undefined) [GENTAMICIN C2]	0.25 (≈ 0.539 µM)
NC[C@@H]1CC[C@@H](N)[C@@H](O[C@H]2[C@H](O)[C@@H](O)[C@H](N)C[C@@H]2N)O1 [GENTAMINE C1A]	16 (≈ 55.1 µM)

Test system: Staphylococcus aureus
Assay: Antibacterial activity against gentamycin and arbekacin-resistant Staphylococcus aureus MF490 expressing AAD(4'), AAC(6')-APH(2'') enzymes by twofold agar dilution method
Format: functional

Compound	MIC [µg/mL]
NCC[C@H](O)C(=O)N[C@@H]1C[C@H](N)[C@@H](O[C@H]2O[C@H](CN)CC[C@H]2N)[C@H](O)[C@H]1O	8 (≈ 20.4 µM)
NCC[C@H](O)C(=O)N[C@@H]1C[C@H](N)[C@@H](O[C@H]2O[C@H](CN)CC[C@H]2N)[C@H](O)[C@H]1O[C@H]1O[C@H](CO)[C@@H](O)[C@H](N)[C@H]1O [ARBEKACIN]	64 (≈ 116 µM)
CN[C@@H]1[C@@H](O)[C@@H](O[C@@H]2[C@@H](O)[C@H](O[C@H]3O[C@H]([C@@H](C)NC)CC[C@H]3N)[C@@H](N)C[C@H]2N)OC[C@]1(C)O [GENTAMICIN C1]	> 128
CN[C@@H]1[C@@H](O)[C@@H](O[C@@H]2[C@@H](O)[C@H](O[C@H]3O[C@H](C(C)N)CC[C@H]3N)[C@@H](N)C[C@H]2N)OC[C@]1(C)O (some centres undefined) [GENTAMICIN C2]	> 128
NC[C@@H]1CC[C@@H](N)[C@@H](O[C@H]2[C@H](O)[C@@H](O)[C@H](N)C[C@@H]2N)O1 [GENTAMINE C1A]	> 128

Test system: Staphylococcus aureus
Assay: Antibacterial activity against Staphylococcus aureus RN4220/pCR1948 expressing AAC(6')-APH(2'') enzyme by twofold agar dilution method
Format: functional

Compound	MIC [µg/mL]
NCC[C@H](O)C(=O)N[C@@H]1C[C@H](N)[C@@H](O[C@H]2O[C@H](CN)CC[C@H]2N)[C@H](O)[C@H]1O	2 (≈ 5.11 µM)
NCC[C@H](O)C(=O)N[C@@H]1C[C@H](N)[C@@H](O[C@H]2O[C@H](CN)CC[C@H]2N)[C@H](O)[C@H]1O[C@H]1O[C@H](CO)[C@@H](O)[C@H](N)[C@H]1O [ARBEKACIN]	1 (≈ 1.81 µM)
CN[C@@H]1[C@@H](O)[C@@H](O[C@@H]2[C@@H](O)[C@H](O[C@H]3O[C@H]([C@@H](C)NC)CC[C@H]3N)[C@@H](N)C[C@H]2N)OC[C@]1(C)O [GENTAMICIN C1]	64 (≈ 134 µM)
CN[C@@H]1[C@@H](O)[C@@H](O[C@@H]2[C@@H](O)[C@H](O[C@H]3O[C@H](C(C)N)CC[C@H]3N)[C@@H](N)C[C@H]2N)OC[C@]1(C)O (some centres undefined) [GENTAMICIN C2]	64 (≈ 138 µM)
NC[C@@H]1CC[C@@H](N)[C@@H](O[C@H]2[C@H](O)[C@@H](O)[C@H](N)C[C@@H]2N)O1 [GENTAMINE C1A]	> 128

Test system: Pseudomonas aeruginosa
Assay: Antibacterial activity against Pseudomonas aeruginosa GN3054 expressing AAC(3)-I by twofold agar dilution method
Format: functional

Compound	MIC [µg/mL]
NCC[C@H](O)C(=O)N[C@@H]1C[C@H](N)[C@@H](O[C@H]2O[C@H](CN)CC[C@H]2N)[C@H](O)[C@H]1O	16 (≈ 40.9 µM)
NCC[C@H](O)C(=O)N[C@@H]1C[C@H](N)[C@@H](O[C@H]2O[C@H](CN)CC[C@H]2N)[C@H](O)[C@H]1O[C@H]1O[C@H](CO)[C@@H](O)[C@H](N)[C@H]1O [ARBEKACIN]	8 (≈ 14.5 µM)
CN[C@@H]1[C@@H](O)[C@@H](O[C@@H]2[C@@H](O)[C@H](O[C@H]3O[C@H]([C@@H](C)NC)CC[C@H]3N)[C@@H](N)C[C@H]2N)OC[C@]1(C)O [GENTAMICIN C1]	128 (≈ 268 µM)
CN[C@@H]1[C@@H](O)[C@@H](O[C@@H]2[C@@H](O)[C@H](O[C@H]3O[C@H](C(C)N)CC[C@H]3N)[C@@H](N)C[C@H]2N)OC[C@]1(C)O (some centres undefined) [GENTAMICIN C2]	128 (≈ 276 µM)
NC[C@@H]1CC[C@@H](N)[C@@H](O[C@H]2[C@H](O)[C@@H](O)[C@H](N)C[C@@H]2N)O1 [GENTAMINE C1A]	64 (≈ 220 µM)

Test system: Staphylococcus aureus
Assay: Antibacterial activity against Staphylococcus aureus RN4220/pMS520 expressing AAD(4')-I enzyme by twofold agar dilution method
Format: functional

Compound	MIC [µg/mL]
NCC[C@H](O)C(=O)N[C@@H]1C[C@H](N)[C@@H](O[C@H]2O[C@H](CN)CC[C@H]2N)[C@H](O)[C@H]1O	4 (≈ 10.2 µM)
NCC[C@H](O)C(=O)N[C@@H]1C[C@H](N)[C@@H](O[C@H]2O[C@H](CN)CC[C@H]2N)[C@H](O)[C@H]1O[C@H]1O[C@H](CO)[C@@H](O)[C@H](N)[C@H]1O [ARBEKACIN]	0.5 (≈ 0.905 µM)
CN[C@@H]1[C@@H](O)[C@@H](O[C@@H]2[C@@H](O)[C@H](O[C@H]3O[C@H]([C@@H](C)NC)CC[C@H]3N)[C@@H](N)C[C@H]2N)OC[C@]1(C)O [GENTAMICIN C1]	0.25 (≈ 0.523 µM)
CN[C@@H]1[C@@H](O)[C@@H](O[C@@H]2[C@@H](O)[C@H](O[C@H]3O[C@H](C(C)N)CC[C@H]3N)[C@@H](N)C[C@H]2N)OC[C@]1(C)O (some centres undefined) [GENTAMICIN C2]	0.25 (≈ 0.539 µM)
NC[C@@H]1CC[C@@H](N)[C@@H](O[C@H]2[C@H](O)[C@@H](O)[C@H](N)C[C@@H]2N)O1 [GENTAMINE C1A]	16 (≈ 55.1 µM)

Test system: Pseudomonas aeruginosa
Assay: Antibacterial activity against Pseudomonas aeruginosa PAO1 by twofold agar dilution method
Format: functional

Compound	MIC [µg/mL]
NCC[C@H](O)C(=O)N[C@@H]1C[C@H](N)[C@@H](O[C@H]2O[C@H](CN)CC[C@H]2N)[C@H](O)[C@H]1O	8 (≈ 20.4 µM)
NCC[C@H](O)C(=O)N[C@@H]1C[C@H](N)[C@@H](O[C@H]2O[C@H](CN)CC[C@H]2N)[C@H](O)[C@H]1O[C@H]1O[C@H](CO)[C@@H](O)[C@H](N)[C@H]1O [ARBEKACIN]	4 (≈ 7.24 µM)
CN[C@@H]1[C@@H](O)[C@@H](O[C@@H]2[C@@H](O)[C@H](O[C@H]3O[C@H]([C@@H](C)NC)CC[C@H]3N)[C@@H](N)C[C@H]2N)OC[C@]1(C)O [GENTAMICIN C1]	4 (≈ 8.38 µM)
CN[C@@H]1[C@@H](O)[C@@H](O[C@@H]2[C@@H](O)[C@H](O[C@H]3O[C@H](C(C)N)CC[C@H]3N)[C@@H](N)C[C@H]2N)OC[C@]1(C)O (some centres undefined) [GENTAMICIN C2]	4 (≈ 8.63 µM)
NC[C@@H]1CC[C@@H](N)[C@@H](O[C@H]2[C@H](O)[C@@H](O)[C@H](N)C[C@@H]2N)O1 [GENTAMINE C1A]	32 (≈ 110 µM)

Test system: Pseudomonas aeruginosa
Assay: Antibacterial activity against Pseudomonas aeruginosa GN4925 expressing AAC(6')-Ib by twofold agar dilution method
Format: functional

Compound	MIC [µg/mL]
NCC[C@H](O)C(=O)N[C@@H]1C[C@H](N)[C@@H](O[C@H]2O[C@H](CN)CC[C@H]2N)[C@H](O)[C@H]1O	64 (≈ 163 µM)
NCC[C@H](O)C(=O)N[C@@H]1C[C@H](N)[C@@H](O[C@H]2O[C@H](CN)CC[C@H]2N)[C@H](O)[C@H]1O[C@H]1O[C@H](CO)[C@@H](O)[C@H](N)[C@H]1O [ARBEKACIN]	4 (≈ 7.24 µM)
CN[C@@H]1[C@@H](O)[C@@H](O[C@@H]2[C@@H](O)[C@H](O[C@H]3O[C@H]([C@@H](C)NC)CC[C@H]3N)[C@@H](N)C[C@H]2N)OC[C@]1(C)O [GENTAMICIN C1]	128 (≈ 268 µM)
CN[C@@H]1[C@@H](O)[C@@H](O[C@@H]2[C@@H](O)[C@H](O[C@H]3O[C@H](C(C)N)CC[C@H]3N)[C@@H](N)C[C@H]2N)OC[C@]1(C)O (some centres undefined) [GENTAMICIN C2]	128 (≈ 276 µM)
NC[C@@H]1CC[C@@H](N)[C@@H](O[C@H]2[C@H](O)[C@@H](O)[C@H](N)C[C@@H]2N)O1 [GENTAMINE C1A]	> 128

Test system: Escherichia coli
Assay: Antibacterial activity against Escherichia coli NIH JC2 by twofold agar dilution method
Format: functional

Compound	MIC [µg/mL]
NCC[C@H](O)C(=O)N[C@@H]1C[C@H](N)[C@@H](O[C@H]2O[C@H](CN)CC[C@H]2N)[C@H](O)[C@H]1O	8 (≈ 20.4 µM)
NCC[C@H](O)C(=O)N[C@@H]1C[C@H](N)[C@@H](O[C@H]2O[C@H](CN)CC[C@H]2N)[C@H](O)[C@H]1O[C@H]1O[C@H](CO)[C@@H](O)[C@H](N)[C@H]1O [ARBEKACIN]	1 (≈ 1.81 µM)
CN[C@@H]1[C@@H](O)[C@@H](O[C@@H]2[C@@H](O)[C@H](O[C@H]3O[C@H]([C@@H](C)NC)CC[C@H]3N)[C@@H](N)C[C@H]2N)OC[C@]1(C)O [GENTAMICIN C1]	0.5 (≈ 1.05 µM)
CN[C@@H]1[C@@H](O)[C@@H](O[C@@H]2[C@@H](O)[C@H](O[C@H]3O[C@H](C(C)N)CC[C@H]3N)[C@@H](N)C[C@H]2N)OC[C@]1(C)O (some centres undefined) [GENTAMICIN C2]	0.5 (≈ 1.08 µM)
NC[C@@H]1CC[C@@H](N)[C@@H](O[C@H]2[C@H](O)[C@@H](O)[C@H](N)C[C@@H]2N)O1 [GENTAMINE C1A]	32 (≈ 110 µM)

Test system: Staphylococcus aureus
Assay: Antibacterial activity against gentamycin and arbekacin-resistant Staphylococcus aureus RN4220/pMF490 expressing AAC(6')-APH(2'') enzyme by twofold agar dilution method
Format: functional

Compound	MIC [µg/mL]
NCC[C@H](O)C(=O)N[C@@H]1C[C@H](N)[C@@H](O[C@H]2O[C@H](CN)CC[C@H]2N)[C@H](O)[C@H]1O	4 (≈ 10.2 µM)
NCC[C@H](O)C(=O)N[C@@H]1C[C@H](N)[C@@H](O[C@H]2O[C@H](CN)CC[C@H]2N)[C@H](O)[C@H]1O[C@H]1O[C@H](CO)[C@@H](O)[C@H](N)[C@H]1O [ARBEKACIN]	8 (≈ 14.5 µM)
CN[C@@H]1[C@@H](O)[C@@H](O[C@@H]2[C@@H](O)[C@H](O[C@H]3O[C@H]([C@@H](C)NC)CC[C@H]3N)[C@@H](N)C[C@H]2N)OC[C@]1(C)O [GENTAMICIN C1]	> 128
CN[C@@H]1[C@@H](O)[C@@H](O[C@@H]2[C@@H](O)[C@H](O[C@H]3O[C@H](C(C)N)CC[C@H]3N)[C@@H](N)C[C@H]2N)OC[C@]1(C)O (some centres undefined) [GENTAMICIN C2]	> 128
